Source: the NIST ThermoML archive (doi:10.1016/j.jct.2018.02.001)

Assays:
[1] = 101.33 kPa, Liquid, Vibrating tube method
[2] = mn = molality of the nth substance listed, in mol/kg; settings: 100 kPa, Liquid, Vibrating tube method

CCCCn1cc[n+](CCCC)c1.[Br-] [1,3-dibutylimidazolium bromide]
[1]
Settings	mass density [kg/m3]
293.15 K	1197.07
298.15 K	1193.75
303.15 K	1190.32
308.15 K	1186.85
313.15 K	1183.34
318.15 K	1180.06
323.15 K	1176.52

CCCCn1cc[n+](CCCC)c1.[Br-] [1,3-dibutylimidazolium bromide] + O
mass density [kg/m3], [2]
Settings	m1 = 0.01076	m1 = 0.01516	m1 = 0.02165	m1 = 0.02575	m1 = 0.03042	m1 = 0.0354	m1 = 0.04047
293.15 K	998.64	998.84	999.13	999.32	999.54	999.77	1000
298.15 K	997.46	997.65	997.93	998.11	998.31	998.52	998.74
303.15 K	995.91	996.08	996.4	996.57	996.78	996.98	997.16
308.15 K	994.12	994.3	994.63	994.79	995	995.2	995.35

CCn1cc[n+](CC)c1.[Br-] [1,3-diethyl-1H-imidazolium bromide]
[1]
Settings	mass density [kg/m3]
293.15 K	1355.06
298.15 K	1351.21
303.15 K	1347.51
308.15 K	1343.75
313.15 K	1339.95
318.15 K	1336.13
323.15 K	1332.29

CCn1cc[n+](CC)c1.[Br-] [1,3-diethyl-1H-imidazolium bromide] + O
mass density [kg/m3], [2]
Settings	m1 = 0.01477	m1 = 0.01845	m1 = 0.02167	m1 = 0.0271	m1 = 0.03151	m1 = 0.035	m1 = 0.04375	m1 = 0.04513	m1 = 0.05018
293.15 K	998.92	999.11	999.27	999.55	999.78	999.96	1000.42	1000.49	1000.75
298.15 K	997.72	997.91	998.07	998.35	998.57	998.75	999.19	999.26	999.51
303.15 K	996.18	996.36	996.52	996.8	997.03	997.2	997.63	997.7	997.94
308.15 K	994.23	994.41	994.58	994.87	995.11	995.29	995.71	995.77	995.97

CCCCCCCCCCCC[n+]1ccn(CCCC)c1.[Br-] [1-butyl-3-dodecyl-1H-imidazolium bromide]
[1]
Settings	mass density [kg/m3]
293.15 K	1059.3
298.15 K	1055.99
303.15 K	1052.6
308.15 K	1049.18
313.15 K	1045.73
318.15 K	1042.27
323.15 K	1038.83

CCCCCCCCCCCC[n+]1ccn(CCCC)c1.[Br-] [1-butyl-3-dodecyl-1H-imidazolium bromide] + O
mass density [kg/m3], [2]
Settings	293.15 K	298.15 K	303.15 K
m1 = 0.0055	998.33	997.09	995.65
m1 = 0.0082	998.38	997.13	995.66
m1 = 0.0092	998.4	997.15	995.68
m1 = 0.0149	998.51	997.26	995.7
m1 = 0.0217	998.64	997.39	995.82
m1 = 0.0252	998.71	997.46	995.9
m1 = 0.0317	998.83	997.58	996
m1 = 0.0337	998.87	997.62	996.04
m1 = 0.0399	999	997.74	996.15
m1 = 0.0479	999.15	997.88	996.3
m1 = 0.0503	999.19	997.92	996.34

CCCC[n+]1ccn(CC)c1.[Br-] [1-butyl-3-ethylimidazolium bromide]
[1]
Settings	mass density [kg/m3]
293.15 K	1263.23
298.15 K	1259.4
303.15 K	1255.95
308.15 K	1252.45
313.15 K	1248.92
318.15 K	1245.45
323.15 K	1241.93

CCCCCC[n+]1ccn(CCCC)c1.[Br-] [1-butyl-3-hexyl-1H-imidazolium bromide]
[1]
Settings	mass density [kg/m3]
293.15 K	1148.8
298.15 K	1145.49
303.15 K	1142.11
308.15 K	1138.66
313.15 K	1135.17
318.15 K	1131.7
323.15 K	1128.22

CCCCCC[n+]1ccn(CCCC)c1.[Br-] [1-butyl-3-hexyl-1H-imidazolium bromide] + O
mass density [kg/m3], [2]
Settings	m1 = 0.0051	m1 = 0.0109	m1 = 0.01511	m1 = 0.01999	m1 = 0.02536	m1 = 0.03025	m1 = 0.03503	m1 = 0.03996	m1 = 0.0452	m1 = 0.05
293.15 K	998.4	998.6	998.8	999	999.22	999.42	999.62	999.82	1000.03	1000.23
298.15 K	997.22	997.41	997.6	997.79	998.01	998.2	998.39	998.58	998.79	998.978
303.15 K	995.73	995.88	996.06	996.24	996.44	996.64	996.82	997.01	997.21	997.38
308.15 K	994.04	994.09	994.2	994.38	994.6	994.81	994.99	995.17	995.35	995.51

CCCCCCCC[n+]1ccn(CCCC)c1.[Br-] [1-butyl-3-octyl-1H-imidazolium bromide]
[1]
Settings	mass density [kg/m3]
293.15 K	1123.09
298.15 K	1119.72
303.15 K	1116.27
308.15 K	1112.79
313.15 K	1109.25
318.15 K	1105.74
323.15 K	1102.23

CCCCCCCC[n+]1ccn(CCCC)c1.[Br-] [1-butyl-3-octyl-1H-imidazolium bromide] + O
mass density [kg/m3], [2]
Settings	m1 = 0.0055	m1 = 0.01	m1 = 0.015	m1 = 0.0216	m1 = 0.0285	m1 = 0.0346	m1 = 0.0412	m1 = 0.0498
293.15 K	998.38	998.55	998.75	999.02	999.32	999.58	999.85	1000.22
298.15 K	997.16	997.36	997.53	997.77	998.04	998.28	998.54	998.88
303.15 K	995.68	995.77	995.96	996.2	996.48	996.71	996.97	997.31
308.15 K	994.05	994.08	994.1	994.32	994.61	994.83	995.08	995.4

CCCCCC[n+]1ccn(CC)c1.[Br-] [1-ethyl-3-hexyl-1H-imidazolium bromide]
[1]
Settings	mass density [kg/m3]
293.15 K	1197.06
298.15 K	1193.59
303.15 K	1190.1
308.15 K	1186.58
313.15 K	1183.02
318.15 K	1179.46
323.15 K	1175.88

CCCCCC[n+]1ccn(CC)c1.[Br-] [1-ethyl-3-hexyl-1H-imidazolium bromide] + O
mass density [kg/m3], [2]
Settings	m1 = 0.0092	m1 = 0.012	m1 = 0.0168	m1 = 0.02	m1 = 0.0248	m1 = 0.0295	m1 = 0.0358	m1 = 0.0432	m1 = 0.0495
293.15 K	998.59	998.73	998.92	999.06	999.26	999.47	999.75	1000.07	1000.35
298.15 K	997.35	997.48	997.66	997.79	998	998.2	998.48	998.8	999.08
303.15 K	995.82	995.93	996.11	996.24	996.43	996.64	996.9	997.21	997.48
308.15 K	994.05	994.09	994.21	994.33	994.51	994.7	994.96	995.26	995.51

CCCCCCCC[n+]1ccn(CC)c1.[Br-] [1-ethyl-3-octyl-1H-imidazolium bromide]
[1]
Settings	mass density [kg/m3]
293.15 K	1148.89
298.15 K	1145.43
303.15 K	1141.74
308.15 K	1138.13
313.15 K	1134.69
318.15 K	1131.07
323.15 K	1127.5

CCCCCCCC[n+]1ccn(CC)c1.[Br-] [1-ethyl-3-octyl-1H-imidazolium bromide] + O
mass density [kg/m3], [2]
Settings	293.15 K	298.15 K	303.15 K	308.15 K
m1 = 0.0128	998.68	997.48	995.95	994.18
m1 = 0.0143	998.75	997.55	996.03	994.25
m1 = 0.0149	998.78	997.58	996.06	994.27
m1 = 0.0171	998.87	997.68	996.14	994.36
m1 = 0.0206	999.02	997.83	996.29	994.5
m1 = 0.0216	999.07	997.87	996.33	994.55
m1 = 0.026	999.25	998.06	996.51	994.71
m1 = 0.0313	999.47	998.28	996.73	994.91
m1 = 0.0355	999.65	998.45	996.91	995.08
m1 = 0.0377	999.74	998.54	997	995.16
m1 = 0.0436	999.99	998.77	997.24	995.39

CCCCCCCCCCCC[n+]1ccn(CC)c1.[Br-] [3-dodecyl-1-ethyl-1H-imidazolium bromide]
[1]
Settings	mass density [kg/m3]
293.15 K	1084.31
298.15 K	1080.97
303.15 K	1077.53
308.15 K	1074.03
313.15 K	1070.48
318.15 K	1066.96
323.15 K	1063.43

CCCCCCCCCCCC[n+]1ccn(CC)c1.[Br-] [3-dodecyl-1-ethyl-1H-imidazolium bromide] + O
mass density [kg/m3], [2]
Settings	m1 = 0.0061	m1 = 0.0074	m1 = 0.0109	m1 = 0.015	m1 = 0.021	m1 = 0.0257	m1 = 0.0362	m1 = 0.0521
293.15 K	998.38	998.42	998.52	998.64	998.81	998.94	999.24	999.68
298.15 K	997.16	997.19	997.27	997.38	997.53	997.65	997.91	998.31
303.15 K	995.65	995.68	995.73	995.83	995.99	996.12	996.37	996.72
